Test results from patent publication US7795290B2 (Genentech, Inc., priority 2004, dated 2010).

biological target: T1, AKT1 (Homo sapiens, UniProt P31749); experiment: HTS ATP-utilizing enzyme assay, off-chip mobility-shift (Caliper HTS 250); type: biochemical; details: kinase named = inhibitory activity/selectivity; test compound 10 μM; active = greater than three-sigma from mean
T1 construct: purchased Upstate 14-276
Excerpt: The following procedures describe the reagent and plate preparation for a HTS of an ATP-utilizing enzyme, such as a protein kinase, run in an off-chip mobility-shift assay format. The following provides an HTS protocol for running a protein kinase HTS screen on a Caliper HTS 250 microfluidics system. The following parameters are dependent on the protein kinase used and can be determined by one skilled in the art as part of a typical assay development process. For example, the peptide substrate used can be identified from the current literature, by screening a peptide library of potential protein kinase substrates, or by other applicable means accepted in the field.
The following table provides typical screen assay parameters appropriate for a Caliper HTS 250 microfluidics system used to assay AKT1. Parameters used to assay other protein kinases can be determined by one skilled in the art.
Assays to determine the kinase inhibitory activity of chemical entities of the present disclosure were performed using a Caliper HTS 250 microfluidics device, Greiner U-bottom assay plates, a Multidrop for transfer of reagents, and Biomek FX (AMNCBM03) software. Initially, 2.4 μL of a 1 mM solution of a test compound in 100% DMSO was added to a well of the Greiner U-bottom plate. A single Greiner U-bottom plate having 24×16 wells could include multiple test compounds. […] Using the Biomek FX, 10 μL of 0.5 M EDTA was added by the span-8 to wells, indicated as 100% Control and 2.4 μL of 100% DMSO was added by the span-8 to wells, indicated as 0% Control. […] The total reaction volume in each well was 25 μL, and the concentration of the test compound was 10 μM. The assay plate was incubated for 2.5 hrs at 20° C. to 22° C. […] The inhibition of the ATP-utilizing enzyme, such as a particular protein kinase, was determined by measuring the ratio of the peptide substrate to phosphorylated product for each well of the assay plate using the Caliper HTS 250 system.
The use of three-sigma statistical limits represents a conservative method for declaring potential hits among targets. The three-sigma activity, as well as the mean population activity, can be different for each target enzyme.
Each chemical entity listed in Table 2 was tested for protein kinase inhibitory activity according to the biological assays and definitions of protein kinase inhibitory activity as described herein.

T1 sequence (P31749 whole entry): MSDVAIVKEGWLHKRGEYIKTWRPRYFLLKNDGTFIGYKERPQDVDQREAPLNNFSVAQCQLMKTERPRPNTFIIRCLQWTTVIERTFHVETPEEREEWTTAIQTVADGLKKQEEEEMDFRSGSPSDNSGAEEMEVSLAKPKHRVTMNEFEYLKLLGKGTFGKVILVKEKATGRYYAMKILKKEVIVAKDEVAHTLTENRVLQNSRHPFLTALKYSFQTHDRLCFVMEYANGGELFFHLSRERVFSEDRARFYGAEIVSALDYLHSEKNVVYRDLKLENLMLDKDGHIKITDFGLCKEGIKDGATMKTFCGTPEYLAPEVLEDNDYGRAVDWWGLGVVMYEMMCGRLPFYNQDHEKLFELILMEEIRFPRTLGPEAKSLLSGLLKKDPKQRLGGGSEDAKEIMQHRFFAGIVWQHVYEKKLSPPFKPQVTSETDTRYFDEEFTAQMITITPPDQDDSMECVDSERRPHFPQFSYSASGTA

Activity, AKT1:
O=C(CCN(C(=O)c1cccs1)c1nc(-c2cc3ccccc3o2)cs1)N1CCSC1 [N-(4-(benzofuran-2-yl)thiazol-2-yl)-N-(3-oxo-3-(thiazolidin-3-yl)propyl)thiophene-2-carboxamide]
O=C(O)CNC(=O)c1ccc(-c2csc(N(CCCN3CCOCC3)C(=O)c3cccs3)n2)cc1 [2-(4-(2-(N-(3-morpholinopropyl)thiophene-2-carboxamido)thiazol-4-yl)benzamido)acetic acid]
COc1ccc(-c2csc(N(CCCN3CCOCC3)C(=O)c3nccn3C)n2)cc1 [N-(4-(4-methoxyphenyl)thiazol-2-yl)-1-methyl-N-(3-morpholinopropyl)-1H-imidazole-2-carboxamide]
COc1ccc(-c2csc(N(CCCN3CCOCC3)C(=O)c3cccn3C)n2)cc1 [N-(4-(4-methoxyphenyl)thiazol-2-yl)-1-methyl-N-(3-morpholinopropyl)-1H-pyrrole-2-carboxamide]
CCN(CC)CCCN(C(=O)c1cccs1)c1nc(-c2cc3ccccc3o2)cs1 [N-(4-(benzofuran-2-yl)thiazol-2-yl)-N-(3-(diethylamino)propyl)thiophene-2-carboxamide]
O=C(Nc1ccc2c(c1)OCCO2)c1csc(N(CCCN2CCOCC2)C(=O)c2cccs2)n1 [N-(2,3-dihydrobenzo[b][1,4]dioxin-6-yl)-2-(N-(3-morpholinopropyl)thiophene-2-carboxamido)thiazole-4-carboxamide]
O=C(CCN1CCOCC1)NCCCN(C(=O)c1cccs1)c1nc(-c2cc3ccccc3o2)cs1 [N-(4-(benzofuran-2-yl)thiazol-2-yl)-N-(3-(3-morpholinopropanamido)propyl)thiophene-2-carboxamide]
CC(=O)N1CCC(C(=O)NCCCN(C(=O)c2cccs2)c2nc(-c3cc4ccccc4o3)cs2)CC1 [1-acetyl-N-(3-(N-(4-(benzofuran-2-yl)thiazol-2-yl)thiophene-2-carboxamido)propyl)piperidine-4-carboxamide]
CN(C)CCOc1ccc(-c2csc(N(CCCN3CCOCC3)C(=O)c3cccs3)n2)cc1 [N-(4-(4-(2-(dimethylamino)ethoxy)phenyl)thiazol-2-yl)-N-(3-morpholinopropyl)thiophene-2-carboxamide]
COc1cccc2cc(-c3csc(N(CCCN4CCOCC4)C(=O)c4cccs4)n3)oc12 [N-(4-(7-methoxybenzofuran-2-yl)thiazol-2-yl)-N-(3-morpholinopropyl)thiophene-2-carboxamide]
COc1ccc(-c2csc(N(CCCN3CCCCC3)C(=O)c3cccs3)n2)cc1OC [N-(4-(3,4-dimethoxyphenyl)thiazol-2-yl)-N-(3-(piperidin-1-yl)propyl)thiophene-2-carboxamide]
CC(CO)(CO)C(=O)NCCCN(C(=O)c1cccs1)c1nc(-c2cc3ccccc3o2)cs1 [N-(4-(benzofuran-2-yl)thiazol-2-yl)-N-(3-(3-hydroxy-2-(hydroxymethyl)-2-methylpropanamido)propyl)thiophene-2-carboxamide]
CCN(CC)C(=O)C1CCCN(CCCN(C(=O)c2cccs2)c2nc(-c3cc4ccccc4o3)cs2)C1 (centres unmarked) [1-(3-(N-(4-(benzofuran-2-yl)thiazol-2-yl)thiophene-2-carboxamido)propyl)-N,N-diethylpiperidine-3-carboxamide]
O=C(c1cccs1)N(CCCCN1CCOCC1)c1nc(-c2cc3ccccc3o2)cs1 [N-(4-(benzofuran-2-yl)thiazol-2-yl)-N-(4-morpholinobutyl)thiophene-2-carboxamide]
CN1CCN(C(=O)c2ccc(-c3csc(N(CCCN4CCOCC4)C(=O)c4cccs4)n3)cc2)CC1 [N-(4-(4-(4-methylpiperazine-1-carbonyl)phenyl)thiazol-2-yl)-N-(3-morpholinopropyl)thiophene-2-carboxamide]
O=C(c1cccs1)N(CCCN1CCOCC1)c1nc(-c2ccc(Cl)cc2Cl)cs1 [N-(4-(2,4-dichlorophenyl)thiazol-2-yl)-N-(3-morpholinopropyl)thiophene-2-carboxamide]
COC(=O)CNC(=O)CCCN(C(=O)c1cccs1)c1nc(-c2cc3ccccc3o2)cs1 [methyl 2-(4-(N-(4-(benzofuran-2-yl)thiazol-2-yl)thiophene-2-carboxamido)butanamido)acetate]
CCOC(=O)c1csc(N(CCCN2CCOCC2)C(=O)c2cccs2)n1 [ethyl 2-(N-(3-morpholinopropyl)thiophene-2-carboxamido)thiazole-4-carboxylate]
O=C(c1cccs1)N(CCCN1CCOCC1)c1nc(-c2cc3ccccc3[nH]2)cs1 [N-(4-(1H-indol-2-yl)thiazol-2-yl)-N-(3-morpholinopropyl)thiophene-2-carboxamide]
NC(=O)C1CCCN1CCCN(C(=O)c1cccs1)c1nc(-c2cc3ccccc3o2)cs1 (centres unmarked) [1-(3-(N-(4-(benzofuran-2-yl)thiazol-2-yl)thiophene-2-carboxamido)propyl)pyrrolidine-2-carboxamide]
COc1ccc(-c2csc(N(CCCN3CCOCC3)C(=O)c3ccccc3)n2)cc1OC [N-(4-(3,4-dimethoxyphenyl)thiazol-2-yl)-N-(3-morpholinopropyl)benzamide]
NC(=O)C1CCCCN1C(=O)CCN(C(=O)c1cccs1)c1nc(-c2cc3ccccc3o2)cs1 (centres unmarked) [1-(3-(N-(4-(benzofuran-2-yl)thiazol-2-yl)thiophene-2-carboxamido)propanoyl)piperidine-2-carboxamide]
O=C(c1ccco1)N(CCCN1CCOCC1)c1nc(-c2cc3ccccc3o2)cs1 [N-(4-(benzofuran-2-yl)thiazol-2-yl)-N-(3-morpholinopropyl)furan-2-carboxamide]
COc1ccc(-c2csc(N(CCCN3CCOCC3)C(=O)c3cccc(F)c3)n2)cc1 [3-fluoro-N-(4-(4-methoxyphenyl)thiazol-2-yl)-N-(3-morpholinopropyl)benzamide]
O=C(CCCN(C(=O)c1cccs1)c1nc(-c2cc3ccccc3o2)cs1)NCCc1ccncc1 [N-(4-(benzofuran-2-yl)thiazol-2-yl)-N-(4-oxo-4-(2-(pyridin-4-yl)ethylamino)butyl)thiophene-2-carboxamide]
O=C(O)C1CCCN(C(=O)CCN(C(=O)c2cccs2)c2nc(-c3cc4ccccc4o3)cs2)C1 (centres unmarked) [1-(3-(N-(4-(benzofuran-2-yl)thiazol-2-yl)thiophene-2-carboxamido)propanoyl)piperidine-3-carboxylic acid]
CN(C)CCN1CCN(C(=O)CCCN(C(=O)c2cccs2)c2nc(-c3cc4ccccc4o3)cs2)CC1 [N-(4-(benzofuran-2-yl)thiazol-2-yl)-N-(4-(4-(2-(dimethylamino)ethyl)piperazin-1-yl)-4-oxobutyl)thiophene-2-carboxamide]
O=C(c1ccco1)N(CCCN1CCOCC1)c1nc(-c2cc(-c3ccccc3)no2)cs1 [N-(3-morpholinopropyl)-N-(4-(3-phenylisoxazol-5-yl)thiazol-2-yl)furan-2-carboxamide]
COc1ccc(-c2csc(N(CCCN3CCCCCC3)C(=O)c3cccs3)n2)cc1 [N-(3-(azepan-1-yl)propyl)-N-(4-(4-methoxyphenyl)thiazol-2-yl)thiophene-2-carboxamide]
CCOC(=O)CN1CCN(CCCN(C(=O)c2cccs2)c2nc(-c3cc4ccccc4o3)cs2)CC1 [ethyl 2-(4-(3-(N-(4-(benzofuran-2-yl)thiazol-2-yl)thiophene-2-carboxamido)propyl)piperazin-1-yl)acetate]
CN(C)CCCOc1ccc(-c2csc(N(CCCN3CCOCC3)C(=O)c3cccs3)n2)cc1 [N-(4-(4-(3-(dimethylamino)propoxy)phenyl)thiazol-2-yl)-N-(3-morpholinopropyl)thiophene-2-carboxamide]
COc1ccc(OC)c(-c2csc(N(CCCN3CCCC3)C(=O)c3cccs3)n2)c1 [N-(4-(2,5-dimethoxyphenyl)thiazol-2-yl)-N-(3-(pyrrolidin-1-yl)propyl)thiophene-2-carboxamide]
